Tested on: HCT116 cells
Test: Mass cytometry hypoxia labelling (130Te signal)
Type: cell-based
Description: FIGS. 4A-E show a schematic representation and density maps and plots. FIG. 4A is a schematic representation of Telox/Telox2 cell labelling for analysis via mass cytometry on a second-generation CyTOF instrument. FIG. 4b) is a density map of signal event length vs. ^130Te signal (arbitrary units). FIG. 4c) is a density plot output from the top-right gate in b) of ^193Ir signal (arbitrary units) vs. ^103Rh signal (arbitrary units). More than 93% of detected events fall in the square gate. FIG. 4d) is a density plot output from the bottom-left gate in b) of ^193Ir signal (arbitrary units) vs. ^103Rh signal (arbitrary units). More than 89% of detected events fall in the square gate. FIG. 4e) is a population histograms of cell ^130Te content (arbitrary units). Oxygen concentrations are listed as numerical percentages, P=Pimonidazole (100 μM). Blue and red histograms are Pimonidazole-negative controls. Orange and green histograms are Pimonidazole- positive competition experiments. Note: warmer colors in density plots indicate higher cell population density.
FIGS. 8A and B show a) the absolute ^130Te signal as a function of concentration as determined by mass cytometry analysis of HCT116 cells incubated with the exemplary compound, Telox-2, for 3 hours in either near-anoxic (˜0% O2), hypoxic (˜1% O2) or normoxic (21% O2) atmosphere; and b) the signal-to-noise (fold-change) representation of the data presented in part a.
FIGS. 9A-D show a) Absolute ^130Te signal as a function of time as determined by mass cytometry analysis of HCT116 cells incubated with 10 μM of the exemplary compound,Telox-2 (constant exposure), in either near-anoxic (˜0% O2), hypoxic (˜1% O2) or normoxic (21% O2) atmosphere; b) the signal-to-noise (fold-change) representation of the data presented in part a; and c) the absolute ^130Te signal as a function of time as determined by mass cytometry analysis of HCT116 cells incubated with 10 μM Telox-2 for 3 hours followed by replacement of Telox-2-containing media with fresh media in either near-anoxic (˜0% O2), hypoxic (˜1% O2) or normoxic (21% O2) atmosphere; and d) the signal-to-noise (fold-change) representation of the data presented in part c.
HCT116 (500,000) cells were seeded in 60 mm plastic petri dishes (Corning Inc., NY) and incubated for 24 h at 37° C., 21% O2/5% CO2. The cells were transferred to hypoxia chambers (H35/H85 hypoxia workstation, Don Whitley Scientific) maintained at 1%/0.2% or <0.02% O2 for 3 h. Hypoxia experiments (<0.02% O2) were performed by seeding the cells in 60 mm glass plates (Corning Inc., NY).
HCT 116 cells (see sections i and ii) were incubated in media containing Telox or Telox2 (100 μM, added as a neat solution in sterile DMSO; final [DMSO]=0.1%) for 3 hours under atmosphere containing an appropriate concentration of O2. Following incubation, the media was removed, cells were washed with sterile PBS, and then separated from the incubation plate via trypsinization (37° C., 10 min) and gentle scraping. The cell suspension was pelleted and resuspended in PBS containing β-ME (1.0 mL, 100 mM). Cells were pelleted, resuspended in PBS (900 μL, no β-ME), and fixed with formaldehyde (100 μL, 37% solution) for 25 minutes. Following fixation, cells were pelleted, resuspended in PBS containing β-ME (1.0 mL, 100 mM), and pelleted once again. Cells were then resuspended in PBS ([…], no β-ME) and incubated with either the Ir-containing nucleic acid intercalator (hypoxic cells) or the Rh containing nucleic acid intercalator (normoxic cells) (10 μL, 100 μM solution in sterile PBS) for 20 minutes. Cells were then pelleted and resuspended in PBS (1.0 mL, no β-ME) twice. Cell pellets were then resuspended in PBS containing ^151/153EU beads (1/10 dilution of CyTOF® calibration beads, DVS Sciences, 1.0-2.5 mL depending on pellet size). The two cells samples were then combined (250 μL of each) and 250 μL of the resultant sample was injected onto a second-generation CyTOF® instrument for MC analysis. […]

O=[N+]([O-])c1nccn1CCc1ccc[te]1 [Telox-2, 2-nitro-1-(2-(tellurophen-2-yl)ethyl)-1H-imidazole]
signal-to-noise vs incubation time, constant exposure (HCT116, 10 μM, near-anoxic and moderately hypoxic vs normoxic control): enhanced as incubation time increases | signal-to-noise under moderately hypoxic conditions vs near-anoxic (HCT116, 1% O2): significantly lower | loss of probe-protein conjugates after pulsed exposure (HCT116, 3 hours exposure then fresh media up to additional 21 hours): exponential-type decay | optimal probe concentration to maximize signal-to-noise (HCT116, 3 hours, normoxic vs near-anoxic): 10 µM

— US10816552B2 (The Governing Council of the University of Toronto, priority 2014, dated 2020)
